Test results published in patent US9409908B2 (priority 2012, dated 2016).
Structures can show the parent of a compound that is named as a salt.

Experiments:
[1] = molecular target: purified human Factor XIa (Homo sapiens (Human), UniProt P03951); experiment: biochemical; assay type: biochemical; conditions: read-out: Factor XIa Ki
[2] = molecular target: purified human plasma kallikrein (Homo sapiens (Human), UniProt P03952); experiment: biochemical; assay type: biochemical; conditions: read-out: Plasma Kallikrein Ki
purified human plasma kallikrein, sequence (P03952 whole entry, looked up): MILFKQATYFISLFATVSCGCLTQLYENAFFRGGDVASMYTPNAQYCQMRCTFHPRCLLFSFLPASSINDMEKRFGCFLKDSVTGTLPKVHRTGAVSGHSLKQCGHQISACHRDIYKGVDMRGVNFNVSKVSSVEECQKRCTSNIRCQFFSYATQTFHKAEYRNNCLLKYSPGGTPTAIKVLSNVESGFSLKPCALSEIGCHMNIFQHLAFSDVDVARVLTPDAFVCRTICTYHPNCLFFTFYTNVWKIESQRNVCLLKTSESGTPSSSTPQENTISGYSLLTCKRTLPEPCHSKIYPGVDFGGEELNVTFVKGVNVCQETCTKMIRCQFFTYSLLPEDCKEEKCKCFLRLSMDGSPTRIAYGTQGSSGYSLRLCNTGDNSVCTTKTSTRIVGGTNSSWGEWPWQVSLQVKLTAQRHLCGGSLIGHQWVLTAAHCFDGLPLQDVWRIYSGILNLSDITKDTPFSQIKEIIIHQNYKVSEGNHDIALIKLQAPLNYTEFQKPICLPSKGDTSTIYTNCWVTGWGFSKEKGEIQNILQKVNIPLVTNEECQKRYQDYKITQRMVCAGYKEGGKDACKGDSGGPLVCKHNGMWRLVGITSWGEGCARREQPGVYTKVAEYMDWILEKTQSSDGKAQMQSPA
purified human plasma kallikrein, sequence (P03952 whole entry partner, looked up): as the sequence (P03952 whole entry, looked up) above

purified human Factor XIa, sequence (P03951 whole entry, looked up): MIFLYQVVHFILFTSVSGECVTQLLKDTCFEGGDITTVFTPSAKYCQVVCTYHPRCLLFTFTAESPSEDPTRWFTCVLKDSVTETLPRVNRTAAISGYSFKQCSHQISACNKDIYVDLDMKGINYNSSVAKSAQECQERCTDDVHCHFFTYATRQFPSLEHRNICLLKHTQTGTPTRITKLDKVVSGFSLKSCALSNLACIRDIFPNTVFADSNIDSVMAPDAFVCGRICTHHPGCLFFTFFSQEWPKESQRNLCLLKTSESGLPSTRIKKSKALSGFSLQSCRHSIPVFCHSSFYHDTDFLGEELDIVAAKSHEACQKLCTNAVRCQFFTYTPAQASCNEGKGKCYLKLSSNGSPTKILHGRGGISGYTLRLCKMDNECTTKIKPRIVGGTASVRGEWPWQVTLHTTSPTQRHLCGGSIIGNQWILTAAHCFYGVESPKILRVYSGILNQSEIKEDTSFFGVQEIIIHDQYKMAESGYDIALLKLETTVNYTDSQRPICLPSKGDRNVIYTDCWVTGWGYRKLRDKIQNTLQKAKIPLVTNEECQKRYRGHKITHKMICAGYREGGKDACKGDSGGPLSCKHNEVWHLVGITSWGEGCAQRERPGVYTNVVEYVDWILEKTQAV
purified human Factor XIa, sequence (P03951 whole entry partner, looked up): as the sequence (P03951 whole entry, looked up) above

SMILES	Ki [1]	Ki [2]
C[C@@H]1CCC[C@H](n2ccc(-c3cccc(Cl)c3F)cc2=O)c2cc(ccn2)-c2c(F)cc(F)cc2NC1=O [Example 212, (10R,14S)-14-[4-(3-chloro-2-fluorophenyl)-2-oxo-1,2-dihydropyridin-1-yl]-3,5-difluoro-10-methyl-8,16-diazatricyclo[13.3.1.0^2,7]nonadeca-1(19),2(7),3,5,15,17-hexaen-9-one, TFA salt]	111 nM	286 nM
C[C@@H]1CCC[C@H](N2CCC(c3c(F)ccc(Cl)c3F)=CC2=O)c2cc(ccn2)-c2cc(F)c(N)cc2NC1=O [Example 143, (10R,14S)-5-amino-14-[4-(3-chloro-2,6-difluorophenyl)-6-oxo-1,2,3,6-tetrahydropyridin-1-yl]-4-fluoro-10-methyl-8,16-diazatricyclo[13.3.1.0^2,7]nonadeca-1(19),2(7),3,5,15,17-hexaen-9-one]	1.31 nM	3.38 nM
COC(=O)Nc1ccc2c(c1)NC(=O)[C@H](C)CCC[C@H](N1CCC(c3c(C#N)ccc(Cl)c3F)=CC1=O)c1cc-2cc(=O)[nH]1 [Example 30, Methyl N-[(10R,14S)-14-[4-(3-chloro-6-cyano-2-fluorophenyl)-6-oxo-1,2,3,6-tetrahydropyridin-1-yl]-10-methyl-9,17-dioxo-8,16-diazatricyclo[13.3.1.0^2,7]nonadeca-1(18),2,4,6,15(19)-pentaen-5-yl]carbamate, TFA salt]	0.21 nM	3 nM
COC(=O)Nc1ccc2c(c1)C(=O)NCCCC[C@H](N1CCC(c3c(F)ccc(Cl)c3F)=CC1=O)c1cc-2ccn1 [Example 24, Methyl N-[(14S)-14-[4-(3-chloro-2,6-difluorophenyl)-6-oxo-1,2,3,6-tetrahydropyridin-1-yl]-8-oxo-9,16-diazatricyclo[13.3.1.0^2,7]nonadeca-1(19),2(7),3,5,15,17-hexaen-5-yl]carbamate, TFA salt]	270 nM	214 nM
C[C@@H]1CCC[C@H](N2CCC(c3cccc(Cl)c3F)=CC2=O)c2cc(ccn2)-c2ccccc2NC1=O [Example 47, (10R,14S)-14-[4-(3-Chloro-2-fluorophenyl)-6-oxo-1,2,3,6-tetrahydropyridin-1-yl]-10-methyl-8,16-diazatricyclo[13.3.1.0^2,7]nonadeca-1(19),2,4,6,15,17-hexaen-9-one, TFA salt]	86.3 nM	66 nM
COC(=O)Nc1ccc2c(c1)NC(=O)[C@H](C)CCC[C@H](N1CCC(c3c(OC(F)F)ccc(Cl)c3F)=CC1=O)c1cc-2ccn1 [Example 32, Methyl N-[(10R,14S)-14-{4-[3-chloro-6-(difluoromethoxy)-2-fluorophenyl]-6-oxo-1,2,3,6-tetrahydropyridin-1-yl}-10-methyl-9-oxo-8,16-diazatricyclo[13.3.1.0^2,7]nonadeca-1(19),2,4,6,15,17-hexaen-5-yl]carbamate, TFA salt]	0.06 nM	6 nM
C[C@@H]1CCC[C@H](N2CCC(c3c(F)ccc(Cl)c3F)=CC2=O)c2cc(ccn2)-c2cc3c(O)cc(=O)[nH]c3cc2NC1=O [Example 199, (14R,18S)-18-[4-(3-chloro-2,6-difluorophenyl)-6-oxo-1,2,3,6-tetrahydropyridin-1-yl]-5-hydroxy-14-methyl-8,12,20-triazatetracyclo[17.3.1.0^2,11.0^4,9]tricosa-1(23),2,4(9),5,10,19,21-heptaene-7,13-dione, TFA salt]	< 0.05 nM	1.79 nM
C[C@@H]1CCC[C@H](N2CCC(c3c(F)ccc(Cl)c3F)=CC2=O)c2cccc(c2)-c2ccccc2NC1=O [Example 162, (10R,14S)-14-[4-(3-chloro-2,6-difluorophenyl)-6-oxo-1,2,3,6-tetrahydropyridin-1-yl]-10-methyl-8-azatricyclo[13.3.1.0^2,7]nonadeca-1(19),2,4,6,15,17-hexaen-9-one]	76.5 nM	125 nM
C[C@@H]1CCC[C@H](N2CCC(c3c(F)ccc(Cl)c3F)=CC2=O)c2cc(ccn2)-c2cc(Cl)c(O)cc2NC1=O [Example 19, (10R,14S)-4-Chloro-14-[4-(3-chloro-2,6-difluorophenyl)-6-oxo-1,2,3,6-tetrahydropyridin-1-yl]-5-hydroxy-10-methyl-8,16-diazatricyclo[13.3.1.0^2,7]nonadeca-1(19),2,4,6,15,17-hexaen-9-one, TFA salt]	15.5 nM	52 nM
C[C@@H]1CCC[C@H](N2CCC(c3cc(Cl)ccc3-n3ccnn3)=CC2=O)c2cc(ccn2)-c2cc(F)ccc2NC1=O [Example 188, (10R,14S)-14-{4-[5-chloro-2-(1H-1,2,3-triazol-1-yl)phenyl]-6-oxo-1,2,3,6-tetrahydropyridin-1-yl}-4-fluoro-10-methyl-8,16-diazatricyclo[13.3.1.0^2,7]nonadeca-1(19),2(7),3,5,15,17-hexaen-9-one]	1.6 nM	23.2 nM
C[C@@H]1CCC[C@H](N2CCC(c3c(F)ccc(Cl)c3F)=CC2=O)c2cc(ccn2)-c2ccc(NC3O[C@H](C(=O)O)[C@@H](O)[C@H](O)[C@H]3O)cc2NC1=O (stereo partly drawn) [Example 128, (2S,3S,4S,5R)-6-{[(10R,14S)-14-[4-(3-chloro-2,6-difluorophenyl)-6-oxo-1,2,3,6-tetrahydropyridin-1-yl]-10-methyl-9-oxo-8,16-diazatricyclo[13.3.1.0^2,7]nonadeca-1(19),2,4,6,15,17-hexaen-5-yl]amino}-3,4,5-trihydroxyoxane-2-carboxylic acid]	10.3 nM	25.5 nM
C[C@@H]1CCC[C@H](N2CCC(c3c(F)ccc(Cl)c3F)=CC2=O)c2cc(ccn2)-c2cc(Br)c(N)cc2NC1=O [Example 193, (10R,14S)-5-amino-4-bromo-14-[4-(3-chloro-2,6-difluorophenyl)-6-oxo-1,2,3,6-tetrahydropyridin-1-yl]-10-methyl-8,16-diazatricyclo[13.3.1.0^2,7]nonadeca-1(19),2(7),3,5,15,17-hexaen-9-one, 2 TFA salt]	1.02 nM	3.91 nM
C[C@@H]1CCC[C@H](N2CCC(c3c(C#N)ccc(C#N)c3F)=CC2=O)c2cc(ccn2)-c2c(ccc(F)c2F)NC1=O [Example 209, 2-{1-[(10R,14S)-3,4-difluoro-10-methyl-9-oxo-8,16-diazatricyclo[13.3.1.0^2,7]nonadeca-1(19),2(7),3,5,15,17-hexaen-14-yl]-6-oxo-1,2,3,6-tetrahydropyridin-4-yl}-3-fluorobenzene-1,4-dicarbonitrile, TFA salt]	120 nM	457 nM
COC(=O)Nc1ccc2c(c1)NC(=O)[C@H](C)CCC[C@H](N1CCC(c3c(-c4c[nH]nn4)ccc(Cl)c3F)=CC1=O)c1cc-2ccn1 [Example 182, Methyl N-[(10R,14S)-14-{4-[3-chloro-2-fluoro-6-(1H-1,2,3-triazol-4-yl)phenyl]-6-oxo-1,2,3,6-tetrahydropyridin-1-yl}-10-methyl-9-oxo-8,16-diazatricyclo[13.3.1.0^2,7]nonadeca-1(19),2(7),3,5,15,17-hexaen-5-yl]carbamate]	0.11 nM	14.3 nM
C[C@@H]1CCC[C@H](N2CCC(c3c(F)ccc(Cl)c3F)=CC2=O)c2cc(ccn2)-c2ccc(NC(=O)OCCO)cc2NC1=O [Example 54, 2-Hydroxyethyl N-[(10R,14S)-14-[4-(3-chloro-2,6-difluorophenyl)-6-oxo-1,2,3,6-tetrahydropyridin-1-yl]-10-methyl-9-oxo-8,16-diazatricyclo[13.3.1.0^2,7]nonadeca-1(19),2,4,6,15,17-hexaen-5-yl]carbamate, TFA salt]	0.08 nM	1 nM
CC(=O)NC(=S)Nc1ccc2c(c1)NC(=O)[C@H](C)CCC[C@H](N1CCC(c3c(F)ccc(Cl)c3F)=CC1=O)c1cc-2ccn1 [Example 63, 3-Acetyl-1-[(10R,14S)-14-[4-(3-chloro-2,6-difluorophenyl)-6-oxo-1,2,3,6-tetrahydropyridin-1-yl]-10-methyl-9-oxo-8,16-diazatricyclo[13.3.1.0^2,7]nonadeca-1(19),2,4,6,15,17-hexaen-5-yl]thiourea]	7.86 nM	48 nM
C[C@@H]1CCC[C@H](N2CCC(c3c(C#N)ccc(Cl)c3F)=CC2=O)c2cc(ccn2)-c2ccc(C(N)=O)cc2NC1=O [Example 33, (10R,14S)-14-[4-(3-Chloro-6-cyano-2-fluorophenyl)-6-oxo-1,2,3,6-tetrahydropyridin-1-yl]-10-methyl-9-oxo-8,16-diazatricyclo[13.3.1.0^2,7]nonadeca-1(19),2,4,6,15,17-hexaene-5-carboxamide, TFA salt]	2.02 nM	3 nM
Cc1[nH]c2nc1-c1ccccc1NC(=O)[C@H](C)CCC[C@@H]2N1CCC(c2c(F)ccc(Cl)c2F)=CC1=O [Example 220, (10R,14S)-14-[4-(3-chloro-2,6-difluorophenyl)-6-oxo-1,2,3,6-tetrahydropyridin-1-yl]-10,17-dimethyl-8,16,18-triazatricyclo[13.2.1.0^2,7]octadeca-1(17),2,4,6,15(18)-pentaen-9-one, TFA salt]	21.7 nM	50.2 nM
COC(=O)Nc1ccc2c(c1)NC(=O)[C@H](C)CCC[C@H](N1CCC(c3c(C#N)ccc(Cl)c3F)=CC1=O)c1cc-2ccn1 [Example 3, Methyl N-[(10R,14S)-14-[4-(3-chloro-6-cyano-2-fluorophenyl)-6-oxo-1,2,3,6-tetrahydropyridin-1-yl]-10-methyl-9-oxo-8,16-diazatricyclo[13.3.1.0^2,7]nonadeca-1(19),2,4,6,15,17-hexaen-5-yl]carbamate, TFA salt]	0.03 nM	1 nM
Cc1nn(C)cc1-c1ccc(Cl)c(F)c1C1=CC(=O)N([C@H]2CCC[C@@H](C)C(=O)Nc3ccccc3-c3ccnc2c3)CC1 [Example 60, (10R,14S)-14-{4-[3-Chloro-6-(1,3-dimethyl-1H-pyrazol-4-yl)-2-fluorophenyl]-6-oxo-1,2,3,6-tetrahydropyridin-1-yl}-10-methyl-8,16-diazatricyclo[13.3.1.0^2,7]nonadeca-1(19),2,4,6,15,17-hexaen-9-one, TFA salt]	> 409 nM	1090 nM
